From PubChem BioAssay (NCI)
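How tested: cells in 96-well plates exposed to compound for 48 hours at five concentrations. GI50: concentration for 50% inhibition of growth. Definition used: TGI = concentration required for complete inhibition of growth.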

Legend:
Experiment in all cases: NCI anticancer screen, dose series, 48 h
786-0 renal = system: 786-0 renal
EKVX NSCLC = system: EKVX NSCLC
HCC-2998 colon = system: HCC-2998 colon
HCT-116 colon = system: HCT-116 colon
KM12 colon = system: KM12 colon
OVCAR-3 ovarian = system: OVCAR-3 ovarian
SK-MEL-2 melanoma = system: SK-MEL-2 melanoma
U251 CNS = system: U251 CNS
UO-31 renal = system: UO-31 renal
CAKI-1 renal = system: CAKI-1 renal

SMILES	TGI (786-0 renal) [µM]	TGI (EKVX NSCLC) [µM]	TGI (HCC-2998 colon) [µM]	TGI (HCT-116 colon) [µM]	TGI (KM12 colon) [µM]	TGI (OVCAR-3 ovarian) [µM]	TGI (SK-MEL-2 melanoma) [µM]	TGI (U251 CNS) [µM]	TGI (UO-31 renal) [µM]	TGI (CAKI-1 renal) [µM]	GI50 (786-0 renal) [µM]	GI50 (CAKI-1 renal) [µM]	GI50 (EKVX NSCLC) [µM]	GI50 (HCC-2998 colon) [µM]	GI50 (KM12 colon) [µM]	GI50 (OVCAR-3 ovarian) [µM]	GI50 (SK-MEL-2 melanoma) [µM]	GI50 (U251 CNS) [µM]	GI50 (UO-31 renal) [nM]	GI50 (HCT-116 colon) [µM]
CC1=C(C(=O)Nc2cc(=O)n(C)c(=O)n2C)C(c2ccc([N+](=O)[O-])cc2)C(C(=O)Nc2cc(=O)n(C)c(=O)n2C)=C(C)N1	> 100	> 100	> 100	> 100	> 100	> 100	> 100	> 100	> 100											
CC1(C)OB(O)OC1(C)C	> 100	> 100	> 100	> 100	> 100	> 100	> 100		> 100	> 100										
CN(C)CCNC(=O)c1cccc2c(Nc3ccc(S(N)(=O)=O)cc3)c3ccccc3nc12	4.92	10.2	6.92	1.74		5.85	3.69	4.69	7.44	13.6										
COc1ccc(/C=C2\CC(C)CC3C2=NN(C(C)=O)C3c2ccc(OC)cc2)cc1 (centres undefined)	37.7	> 100	40		46.5	42.4	> 100	31	64.8	> 100	18.8	30.5	27.3	17.5	16.9	18.7	30.3	14.4	19000	
CN1CCN(c2cc(C(=O)Nc3cc4cc(-c5cnn(C)c5)ccc4cn3)ccn2)CC1	10.4	14.3	4.57	11.4	11.9	0.288	0.364	13.2	0.532		0.3		0.302	0.276	0.071	0.0425	0.113	0.188	122	0.0376
CN(C)CCSc1cccc(-c2cc(-c3cccc(SCCN(C)C)c3)nc(SCCN(C)C)n2)c1	20.9	5.24	7.76	2.95	3.44	21.8	21.1	3.54	27.9											
CN(C)c1ncc(-c2ccc(C(F)(F)F)cc2)c(NC2CCCCCC2)n1	33.4		28.8	53.4	63.3	33.3		30	35.2	> 100	14.8	23.1		13.8	20.5	16.3		14.7	12600	10.4
CCN(CC)c1ccc2c(c1)Oc1nc(N)c(C#N)c(N)c1C2Sc1ccc(OC)cc1 (centres undefined)	3.22	1.97	3.43	3.12	3.73	3.1	3.14	2.81	2.85		1.74		0.479	1.81	1.74	1.69	1.56	1.42	1520	1.65
Cc1nc([C@H]2CC[C@H]3[C@@H]4CCC5=CC(=O)CC[C@]5(C)[C@H]4CC[C@]23C)cs1	> 100	> 100	> 100	> 100	> 100	> 100	> 100	> 100		> 100	> 100	2.3	1.65	6.58	4.72	> 22.6	> 100	5.27		3.47
O=C(CC1(O)C(=O)Nc2ccccc21)c1ccco1 (centres undefined)	> 100	> 100		> 100		> 100	> 100		> 100	> 100										
Clc1ccc(C2=Nn3c(nnc3-c3cc(Cl)cc(Cl)c3Cl)SC2)cc1	38	> 100		> 100	> 100	50.8	> 100	28.3		31.3	17.1	14.6	45.1		9.15	21.2	41.7	12.7		22.1
O=C(O)/C(Cl)=C(\Cl)C(=O)NC1C2CC3CC(C2)CC1C3 (centres undefined)	> 100	> 100	> 100	> 100	96.2	> 100		> 100	> 100	> 100										
O=c1c(O)cccc2cc(O)c(O)c(O)c12	> 100	> 100	> 100	> 100	> 100	32.3		> 100	> 100	> 100	62.1	14.3	19.1	> 100	26.9	6.57		6.03	2540	7.67
Cc1nc(CN2CCCCC2)c(O)c(=O)[nH]1	> 100	> 100		> 100	> 100	> 100	> 100	> 100	> 100	> 100										
O=C(c1ccccc1)c1oc2ccc(Br)cc2c1-c1cnn(-c2ccccc2)c1	> 100		> 100		> 100	> 100	> 100		> 100	> 100										
CCN(CC)CCCC(C)Nc1nc(C)cc(Nc2ccc3nc(C)cc(N)c3c2)n1 (centres undefined)	> 100	> 100	82.9	> 100	40.1	96.9	> 100	98.7	> 100		> 100		53.3	26.9	19.3	32.1	56.6	26.4	86100	32.4
Cc1cc2cn3c4ccc(O)cc4[nH]c(=O)c3c2cc1C	1.83	1.85	1.3		0.553	0.0399	1.97	1.07	1.84	1.5	0.0696	0.0323	0.403	0.0679	0.0374	0.0125	0.0411	0.026	22.8	
O=[N+]([O-])/C=C/c1cc2ccccc2[nH]1	27.9	78		15.7	25	28.2	34.6	25.8	31.9	33.7										
CC(=O)O[C@H]1CCC2[C@@H]3CCC4=C(O)C(=O)C(C#N)C[C@]4(C)C3CC[C@@]21C (some centres undefined)	> 100	> 100	> 100	> 100	> 100	> 100	> 100	> 100	> 100											
Cc1ccc(C2NC(=O)c3ccccc3N2)s1 (centres undefined)	> 100	> 100	39.7	> 100	> 100	50.2	42	> 100	> 100											
COc1cc2c3c(n(CCCNCCCNCCCNCCCN)c(=O)c2cc1OC)-c1cc2c(cc1C3=O)OCO2	7.68	3.5		3.13	4.03	3.88	89	3.81	> 100	3.8	2.31	1.78	1.18		1.73	1.57	4.78	1.33	7390	1.5
Cc1[nH]c2ccccc2c1-c1cc(-c2cc(-c3c(C)[nH]c4ccccc34)nc(N)n2)nc(N)n1	> 100	> 100		> 100	> 100	> 100	> 100	> 100	> 100	> 100										
CN(CCc1ccccn1)c1nc(=[N+](C)C)ss1	> 100	> 100	> 100		> 100	> 100	> 100	> 100	> 100	> 100										
CN(/N=C/c1cccc2cccnc12)c1ccc([N+](=O)[O-])cc1	> 100	> 100	> 100	> 100	> 100	> 100	> 100			> 100										
O=C(/C=C/C=C/c1c(C2CC2)nc2ccccc2c1-c1ccc(F)cc1)c1cccs1	> 100	> 100	4.95		8.05	4.99	6.14	5.4	3.05		2.76		3.09	1.99	1.79	1.5	1.74	1.9	1160	
COc1ccc(N/N=C(\CCN(C)C)c2ccccc2)cc1	12.4	56.9		13.8	18	11.4	18.9	4.55	3.99											
O=C(Nc1ccccc1O)c1ccc(CNc2ccnc(C(F)(F)F)c2)cc1	13.6	> 100	26.5	34.9	23.3	21.9		> 100	14	14.3	3.36	1.74	4.19	10.2	7.01	4.88		4.73	2150	3.96
